Measurements taken from the NIST ThermoML archive (doi:10.1016/j.jct.2006.04.007).
“And” between values parts separate entries of the source, which are not always exact repeats. Identical values can stand only once.

Experiment: mn = molality of the nth substance listed, in mol/kg
Conditions: 350 kPa, Liquid; for apparent molar heat capacity: Extra sensitive DSC

CC(=O)N[C@@H](C=O)[C@@H](O)[C@H](O)[C@H](O)CO [N-acetyl-D-glucosamine] + O
Conditions	apparent molar heat capacity	mass density
278.15 K, m1 = 0.0096	385 J/K/mol	–
278.15 K, m1 = 0.01	–	1000.31 kg/m3
278.15 K, m1 = 0.02	–	1001.78 kg/m3
278.15 K, m1 = 0.0207	377 J/K/mol	–
278.15 K, m1 = 0.03	365 J/K/mol and 358 J/K/mol	1002.26 kg/m3 and 1001.98 kg/m3
278.15 K, m1 = 0.07	362 J/K/mol	1005.5 kg/m3
278.15 K, m1 = 0.1502	348.5 J/K/mol	1012.23 kg/m3
278.15 K, m1 = 0.1999	368.5 J/K/mol	1014.67 kg/m3
278.15 K, m1 = 0.3018	373.1 J/K/mol	1021.8 kg/m3
278.15 K, m1 = 0.5001	378.3 J/K/mol	1035.28 kg/m3
278.15 K, m1 = 0.7003	380.2 J/K/mol	1047.7 kg/m3
278.15 K, m1 = 0.958	358.2 J/K/mol	1065.18 kg/m3
283.15 K, m1 = 0.0096	416 J/K/mol	–
283.15 K, m1 = 0.01	–	1000.13 kg/m3
283.15 K, m1 = 0.02	–	1001.42 kg/m3
283.15 K, m1 = 0.0207	403 J/K/mol	–
283.15 K, m1 = 0.03	385 J/K/mol and 387 J/K/mol	1001.76 kg/m3 and 1002.02 kg/m3
283.15 K, m1 = 0.07	385 J/K/mol	1005.11 kg/m3
283.15 K, m1 = 0.1502	374.5 J/K/mol	1011.82 kg/m3
283.15 K, m1 = 0.1999	392.8 J/K/mol	1014.24 kg/m3
283.15 K, m1 = 0.3018	396.5 J/K/mol	1021.3 kg/m3
283.15 K, m1 = 0.5001	401.6 J/K/mol	1034.59 kg/m3
283.15 K, m1 = 0.7003	403.8 J/K/mol	1046.91 kg/m3
283.15 K, m1 = 0.958	381.8 J/K/mol	1064.21 kg/m3
288.15 K, m1 = 0.0096	435 J/K/mol	–
288.15 K, m1 = 0.01	–	999.6 kg/m3
288.15 K, m1 = 0.02	–	1000.86 kg/m3
288.15 K, m1 = 0.0207	421 J/K/mol	–
288.15 K, m1 = 0.03	404 J/K/mol and 401 J/K/mol	1001.23 kg/m3 and 1001.43 kg/m3
288.15 K, m1 = 0.07	405 J/K/mol	1004.42 kg/m3
288.15 K, m1 = 0.1502	394.4 J/K/mol	1011.1 kg/m3
288.15 K, m1 = 0.1999	411.9 J/K/mol	1013.51 kg/m3
288.15 K, m1 = 0.3018	415.2 J/K/mol	1020.51 kg/m3
288.15 K, m1 = 0.5001	420.1 J/K/mol	1033.66 kg/m3
288.15 K, m1 = 0.7003	422 J/K/mol	1045.87 kg/m3
288.15 K, m1 = 0.958	400.5 J/K/mol	1063.03 kg/m3
293.15 K, m1 = 0.0096	450 J/K/mol	–
293.15 K, m1 = 0.0207	436 J/K/mol	–
293.15 K, m1 = 0.03	420 J/K/mol and 415 J/K/mol	–
293.15 K, m1 = 0.07	421 J/K/mol	–
293.15 K, m1 = 0.1502	411.4 J/K/mol	–
293.15 K, m1 = 0.1999	428.3 J/K/mol	–
293.15 K, m1 = 0.3018	431.3 J/K/mol	–
293.15 K, m1 = 0.5001	436 J/K/mol	–
293.15 K, m1 = 0.7003	437.9 J/K/mol	–
293.15 K, m1 = 0.958	416.6 J/K/mol	–
298.15 K, m1 = 0.0096	462 J/K/mol	–
298.15 K, m1 = 0.0207	449 J/K/mol	–
298.15 K, m1 = 0.03	433 J/K/mol and 432 J/K/mol	–
298.15 K, m1 = 0.07	437 J/K/mol	–
298.15 K, m1 = 0.1502	426.5 J/K/mol	–
298.15 K, m1 = 0.1999	442.5 J/K/mol	–
298.15 K, m1 = 0.3018	445.2 J/K/mol	–
298.15 K, m1 = 0.5001	449.8 J/K/mol	–
298.15 K, m1 = 0.7003	451.5 J/K/mol	–
298.15 K, m1 = 0.958	430.5 J/K/mol	–
303.15 K, m1 = 0.0096	474 J/K/mol	–
303.15 K, m1 = 0.0207	461 J/K/mol	–
303.15 K, m1 = 0.03	445 J/K/mol and 447 J/K/mol	–
303.15 K, m1 = 0.07	451 J/K/mol	–
303.15 K, m1 = 0.1502	440 J/K/mol	–
303.15 K, m1 = 0.1999	455 J/K/mol	–
303.15 K, m1 = 0.3018	457.8 J/K/mol	–
303.15 K, m1 = 0.5001	462.3 J/K/mol	–
303.15 K, m1 = 0.7003	463.7 J/K/mol	–
303.15 K, m1 = 0.958	443.2 J/K/mol	–
308.15 K, m1 = 0.0096	486 J/K/mol	–
308.15 K, m1 = 0.01	–	994.68 kg/m3
308.15 K, m1 = 0.02	–	995.7 kg/m3
308.15 K, m1 = 0.0207	472 J/K/mol	–
308.15 K, m1 = 0.03	456 J/K/mol and 459 J/K/mol	996.2 kg/m3 and 996.26 kg/m3
308.15 K, m1 = 0.07	462 J/K/mol	999.2 kg/m3
308.15 K, m1 = 0.1502	452.2 J/K/mol	1005.72 kg/m3
308.15 K, m1 = 0.1999	466.4 J/K/mol	1008.07 kg/m3
308.15 K, m1 = 0.3018	469.2 J/K/mol	1014.85 kg/m3
308.15 K, m1 = 0.5001	473.5 J/K/mol	1027.59 kg/m3
308.15 K, m1 = 0.7003	474.7 J/K/mol	1039.58 kg/m3
308.15 K, m1 = 0.958	454.6 J/K/mol	1056.31 kg/m3
313.15 K, m1 = 0.0096	496 J/K/mol	–
313.15 K, m1 = 0.0207	482 J/K/mol	–
313.15 K, m1 = 0.03	465 J/K/mol and 470 J/K/mol	–
313.15 K, m1 = 0.07	473.4 J/K/mol	–
313.15 K, m1 = 0.1502	463.3 J/K/mol	–
313.15 K, m1 = 0.1999	476.7 J/K/mol	–
313.15 K, m1 = 0.3018	479.6 J/K/mol	–
313.15 K, m1 = 0.5001	483.8 J/K/mol	–
313.15 K, m1 = 0.7003	484.8 J/K/mol	–
313.15 K, m1 = 0.958	465.2 J/K/mol	–
318.15 K, m1 = 0.0096	506 J/K/mol	–
318.15 K, m1 = 0.01	–	990.9 kg/m3
318.15 K, m1 = 0.02	–	991.84 kg/m3
318.15 K, m1 = 0.0207	491 J/K/mol	–
318.15 K, m1 = 0.03	474 J/K/mol and 479 J/K/mol	992.39 kg/m3 and 992.41 kg/m3
318.15 K, m1 = 0.07	483.8 J/K/mol	995.31 kg/m3
318.15 K, m1 = 0.1502	473.6 J/K/mol	1001.76 kg/m3
318.15 K, m1 = 0.1999	486.3 J/K/mol	–
318.15 K, m1 = 0.3018	489.2 J/K/mol	–
318.15 K, m1 = 0.5001	493.4 J/K/mol	–
318.15 K, m1 = 0.7003	494.2 J/K/mol	–
318.15 K, m1 = 0.958	475 J/K/mol	–
